Assay results from US20230075856A1, “CYCLIC SULFAMIDE COMPOUNDS FOR TREATMENT OF HBV” (Assembly Biosciences, Inc., priority 2018, published 2023).
Where two headings read alike, the source gives them in different places.

Tested on: HBV viral load production from HepAD38 cells
Test: Viral production from HepAD38 cells: viral load in supernatant by qPCR of the HBV core sequence
Assay type: cell-based
Conditions: 5 days incubation, qPCR of supernatant HBV DNA vs DMSO control, read-out: viral load lowering EC50 (Activity)
Procedure, shortened: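 HepAD38 cells seeded at 50,000/well in tetracycline-free medium with 2% FBS, treated with compounds (final top concentration 10 μM) for 5 days at 37 °C. Supernatant HBV DNA quantified by TaqMan qPCR of core sequence against HBV DNA standards, relative to DMSO controls; EC50 by four-parameter logistic fit.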

[1] = Hepatitis B virus, HePAD38, 120 h

| SMILES | EC50 [1] [nM] | EC50 [nM] |
| --- | --- | --- |
| CN1C(C(=O)Nc2ccc(F)c(Cl)c2)CC(C(=O)N[C@H]2CCN(c3ccnc(Cl)c3)C2)NS1(=O)=O (some centres unmarked) [Compound 1055-S] | < 50 | – |
| CN1C(C(=O)Nc2ccc(F)c(Cl)c2)CC(C(=O)NC2CCN(S(C)(=O)=O)CC2)NS1(=O)=O (centres unmarked) [Compound 710] | 100 to 10000 | – |
| Cc1c(CNC(=O)C2CC(C(=O)Nc3ccc(F)c(C#N)c3)N(C)S(=O)(=O)N2)cnn1C (centres unmarked) [Compound 838] | 100 to 10000 | – |
| CN1C(C(=O)Nc2ccc(F)c(Cl)c2)CC(C(=O)NCc2ccc(C(F)(F)F)cc2)NS1(=O)=O (centres unmarked) [Compound 481] | 50 to 100 | – |
| CN1C(C(=O)Nc2ccc(F)c(Cl)c2)CC(C(=O)NC2CCN(C(=O)OCc3ccccc3)CC2)NS1(=O)=O (centres unmarked) [Compound 852] | 100 to 10000 | – |
| Cc1nc(-c2ccccc2F)sc1[C@H](NC(=O)C1CC(C(=O)Nc2ccc(F)c(Cl)c2)N(C)S(=O)(=O)N1)c1ccccc1 (single isomer, unassigned) [1101-ISOMER-C] | 100 to 10000 | – |
| CN1C(C(=O)Nc2ccc(F)c(Cl)c2)CC(C(=O)NC2CCN(C(=O)OC(C)(C)C)CC2)NS1(=O)=O (centres unmarked) [Compound 767] | < 50 | – |
| CN1C(C(=O)Nc2ccc(F)c(Cl)c2)CC(C(=O)NCc2ccccc2-n2ccnc2)NS1(=O)=O (single isomer, unassigned) [Compound 910-ISOMER-B, N3-(3-chloro-4-fluoro-phenyl)-N5-[(2-imidazol-1-ylphenyl)methyl]-2-methyl-1,1-dioxo-1,2,6-thiadiazinane-3,5-dicarboxamide] | 100 to 10000 | – |
| CN1C(C(=O)Nc2ccc(F)c(Cl)c2)CC(C(=O)NCc2cnc(-c3ccc(OCCCN4CCCCC4)cc3)s2)NS1(=O)=O (centres unmarked) [Compound 942] | 50 to 100 | – |
| CN1C(C(=O)Nc2ccc(F)c(Cl)c2)CC(C(=O)NCc2cc(-c3ccc(F)cc3)n(C)n2)NS1(=O)=O (single isomer, unassigned) [1151-ISOMER-A, N3-(3-chloro-4-fluoro-phenyl)-N5-[[5-(4-fluorophenyl)-1-methyl-pyrazol-3-yl]methyl]-2-methyl-1,1-dioxo-1,2,6-thiadiazinane-3,5-dicarboxamide] | < 50 | – |
| Cc1c(CNC(=O)C2CC(C(=O)Nc3ccc(F)c(Cl)c3)N(C)S(=O)(=O)N2)nnn1-c1ccccc1 (single isomer, unassigned; isomer-a) [1148-ISOMER-A, N3-(3-chloro-4-fluoro-phenyl)-2-methyl-N5-[(5-methyl-1-phenyl-triazol-4-yl)methyl]-1,1-dioxo-1,2,6-thiadiazinane-3,5-dicarboxamide] | – | 50 to 100 |
| CN1C(C(=O)Nc2ccc(F)c(Cl)c2)CC(C(=O)NCc2nc3ccccc3s2)NS1(=O)=O (centres unmarked) [Compound 689] | < 50 | – |
| Cc1cn(-c2ccc(F)cc2)nc1CNC(=O)C1CC(C(=O)Nc2ccc(F)c(Cl)c2)N(C)S(=O)(=O)N1 (single isomer, unassigned) [1141-ISOMER-B, N3-(3-chloro-4-fluoro-phenyl)-N5-[[1-(4-fluorophenyl)-4-methyl-pyrazol-3-yl]methyl]-2-methyl-1,1-dioxo-1,2,6-thiadiazinane-3,5-dicarboxamide] | – | 100 to 10000 |
| CN1C(C(=O)Nc2ccc(F)c(Cl)c2)CC(C(=O)NCc2nn(-c3ccccc3)c3ccccc23)NS1(=O)=O (single isomer, unassigned) [1072-ISOMER-B, N3-(3-chloro-4-fluoro-phenyl)-2-methyl-1,1-dioxo-N5-[(1-phenylindazol-3-yl)methyl]-1,2,6-thiadiazinane-3,5-dicarboxamide] | – | 100 to 10000 |
| CN1C(C(=O)Nc2ccc(F)c(Cl)c2)CC(C(=O)NCc2nn(-c3ccccc3Cl)c3ccccc23)NS1(=O)=O (centres unmarked) [Compound 1073] | < 50 | – |
| CN1C(C(=O)Nc2ccc(F)c(Cl)c2)CC(C(=O)NC2CCN(c3ccnc(C#N)c3)CC2)NS1(=O)=O (centres unmarked) [Compound 1089] | < 50 | – |
| Cc1cc(CNC(=O)C2CC(C(=O)Nc3ccc(F)c(Cl)c3)N(C)S(=O)(=O)N2)n(C)n1 (single isomer, unassigned) [Compound 482-ISOMER-A, N3-(3-chloro-4-fluoro-phenyl)-N5-[(2,5-dimethylpyrazol-3-yl)methyl]-2-methyl-1,1-dioxo-1,2,6-thiadiazinane-3,5-dicarboxamide] | < 50 | – |
| CN1C(C(=O)Nc2ccc(F)c(Cl)c2)CC(C(=O)Nc2cnn(C)c2)NS1(=O)=O (centres unmarked) [Compound 478] | 100 to 10000 | – |
| CN1C(C(=O)Nc2ccc(F)c(Cl)c2)CC(C(=O)NC2CCN(c3ncccn3)CC2)NS1(=O)=O (single isomer, unassigned) [Compound 855-ISOMER-A, N3-(3-chloro-4-fluoro-phenyl)-2-methyl-1,1-dioxo-N5-(1-pyrimidin-2-yl-4-piperidyl)-1,2,6-thiadiazinane-3,5-dicarboxamide] | < 50 | – |

| SMILES | EC50 [1] [nM] | EC50 [nM] |
| --- | --- | --- |
| CN1C(C(=O)Nc2ccc(F)c(Cl)c2)CC(C(=O)NCc2csc(-c3ccc(OCCN4CCCCC4)cc3)n2)NS1(=O)=O (centres unmarked) [Compound 957] | < 50 | – |
| CN1C(C(=O)Nc2ccc(F)c(Cl)c2)CC(C(=O)NCc2cccc(Cl)c2)NS1(=O)=O (single isomer, unassigned) [Compound 730-ISOMER-A, N3-(3-chloro-4-fluoro-phenyl)-N5-[(3-chlorophenyl)methyl]-2-methyl-1,1-dioxo-1,2,6-thiadiazinane-3,5-dicarboxamide] | < 50 | – |
| Cc1cccc(CNC(=O)C2CC(C(=O)Nc3ccc(F)c(Cl)c3)N(C)S(=O)(=O)N2)n1 (single isomer, unassigned; isomer-b) [Compound 716-ISOMER-B, N3-(3-chloro-4-fluoro-phenyl)-2-methyl-N5-[(6-methyl-2-pyridyl)methyl]-1,1-dioxo-1,2,6-thiadiazinane-3,5-dicarboxamde] | – | 100 to 10000 |
| Cc1nc(-c2ccccc2)sc1CNC(=O)C1CC(C(=O)Nc2ccnc(Cl)c2)N(C)S(=O)(=O)N1 (centres unmarked) [Compound 1137] | < 50 | – |
| Cc1nc(-c2ccccn2)sc1CNC(=O)C1CC(C(=O)Nc2ccc(F)c(Cl)c2)N(C)S(=O)(=O)N1 (centres unmarked) [Compound 1065] | < 50 | – |
| COc1ccc2nc(CNC(=O)C3CC(C(=O)Nc4ccc(F)c(Cl)c4)N(C)S(=O)(=O)N3)sc2c1 (single isomer, unassigned) [1011-ISOMER-B, N3-(3-Chloro-4-fluoro-phenyl)-N5-[(6-methoxy-1,3-benzothiazol-2-yl)methyl]-2-methyl-1,1-dioxo-1,2,6-thiadiazinane-3,5-dicarboxamide] | < 50 | – |
| CN1C(C(=O)Nc2ccc(F)c(Cl)c2)CC(C(=O)NC(c2ccccc2)c2cnc(Cl)s2)NS1(=O)=O (centres unmarked) [Compound 1066] | < 50 | – |
| CN1C(C(=O)Nc2ccc(F)c(C#N)c2)CC(C(=O)NCc2cnc(-c3ccccc3)s2)NS1(=O)=O (centres unmarked) [Compound 830] | 50 to 100 | – |
| CN1C(C(=O)Nc2ccc(F)c(Cl)c2)CC(C(=O)NCc2cnc(-c3cscn3)s2)NS1(=O)=O (single isomer, unassigned) [Compound 929-ISOMER-B, N3-(3-chloro-4-fluoro-phenyl)-2-methyl-1,1-dioxo-N5-[(2-thiazol-4-ylthiazol-5-yl)methyl]-1,2,6-thiadiazinane-3,5-dicarboxamide] | < 50 | – |
| COC(=O)N1CCC(NC(=O)C2CC(C(=O)Nc3ccc(F)c(Cl)c3)N(CC(F)(F)F)S(=O)(=O)N2)CC1 (single isomer, unassigned; isomer-b) [Compound 893-ISOMER-B, methyl 4-[[5-[(3-chloro-4-fluroo-phenyl)carbamoyl]-1,1-dioxo-6-(2,2,2-trifluoroethyl)-1,2,6-thiadiazinane-3-carbonyl]amino]piperidine-1-carboxylate] | – | 100 to 10000 |
| CN1C(C(=O)Nc2ccc(F)c(Cl)c2)CC(C(=O)NCc2cnccn2)NS1(=O)=O (centres unmarked) [Compound 704] | 100 to 10000 | – |
| CN1C(C(=O)Nc2ccc(F)c(Cl)c2)CC(C(=O)NCc2nn(-c3ccccc3F)c3ccccc23)NS1(=O)=O (single isomer, unassigned) [1086-ISOMER-A, N3-(3-chloro-4-fluoro-phenyl)-N5-[[1-(2-fluorophenyl)indazol-3-yl]methyl]-2-methyl-1,1-dioxo-1,2,6-thiadiazinane-3,5-dicarboxamide] | < 50 | – |
| CN1C(C(=O)Nc2ccc(F)c(Cl)c2)CC(C(=O)NC2CCN(C(=O)OC(C)(C)C)C2)NS1(=O)=O (centres unmarked) [Compound 1081] | 100 to 10000 | – |
| CN1C(C(=O)Nc2ccc(F)c(Cl)c2)CC(C(=O)NCc2sc(-c3ccccc3)nc2C(F)(F)F)NS1(=O)=O (centres unmarked) [Compound 1063] | < 50 | – |
| Cc1cn(-c2ccccc2)nc1CNC(=O)C1CC(C(=O)Nc2ccc(F)c(C#N)c2)N(C)S(=O)(=O)N1 (single isomer, unassigned) [1134-ISOMER-A, N3-(3-cyano-4-fluoro-phenyl)-2-methyl-N5-[(4-methyl-1-phenyl-pyrazol-3-yl)methyl]-1,1-dioxo-1,2,6-thiadiazinane-3,5-dicarboxamide] | 100 to 10000 | – |
| Cc1c(CNC(=O)C2CC(C(=O)Nc3ccc(F)c(Cl)c3)N(C)S(=O)(=O)N2)noc1-c1ccccc1 (single isomer, unassigned) [1150-ISOMER-B, N3-(3-chloro-4-fluoro-phenyl)-2-methyl-N5-[(4-methyl-5-phenyl-isoxazol-3-yl)methyl]-1,1-dioxo-1,2,6-thiadiazinane-3,5-dicarboxamide] | – | 100 to 10000 |
| CN1C(C(=O)Nc2ccc(F)c(Cl)c2)CC(C(=O)NC2CCCc3nc(Br)sc32)NS1(=O)=O (centres unmarked) [Compound 978] | < 50 | – |
| CN1C(C(=O)Nc2ccc(F)c(Cl)c2)CC(C(=O)NCc2cnc(-c3ccc(C(F)(F)F)cc3)s2)NS1(=O)=O (centres unmarked) [Compound 915] | 100 to 10000 | – |
| Cc1nc(-c2ccccc2)sc1CNC(=O)C1CC(C(=O)Nc2ccc(F)c(C#N)c2)N(C)S(=O)(=O)N1 (single isomer, unassigned) [1136-ISOMER-A, N3-(3-cyano-4-fluoro-phenyl)-2-methyl-N5-[(4-methyl-2-phenyl-thiazol-5-yl)methyl]-1,1-dioxo-1,2,6-thiadiazinane-3,5-dicarboxamide] | < 50 | – |
